Experimental data from ChEMBL document CHEMBL5385907, “Proline-Hinged α-Helical Peptides Sensitize Gram-Positive Antibiotics, Expanding Their Physicochemical Properties to Be Used as Gram-Negative Antibiotics” (J Med Chem, 2024).
Values after ≈ are worked out from the molar mass of the structure shown. Active and inactive are the calls of the source. No cut-off for these calls is given here. Residues, ends and D or L forms follow the SMILES beside them.

Legend:
Klebsiella pneumoniae [1] = assay: Potentiation of erythromycin induced antibacterial activity against Klebsiella pneumoniae ATCC 700603 assessed as decrease in bacterial growth at 0.4 uM incubated for 18 hrs in presence of erythromycin by two fold serial dilution assay; assay type: functional, organism-based
Acinetobacter baumannii [2] = assay: Antibacterial activity against Acinetobacter baumannii ATCC 17978 assessed as inhibition of bacterial growth incubated for 18 hrs by two fold serial dilution assay; assay type: functional
[3] = Hemolytic activity in human blood assessed as hemolysis incubated for 6 hrs by microplate reader analysis; assay type: toxicity, tissue-based
[4] = Hydrophobicity of the compound assessed as retention time by reversed-phase HPLC analysis; assay type: physicochemical
Escherichia coli [5] = assay: Potentiation of fusidic acid induced antibacterial activity against Escherichia coli ATCC 25922 assessed as decrease in bacterial growth at 0.4 uM incubated for 18 hrs in presence of fusidic acid by two fold serial dilution assay; assay type: functional, organism-based
Escherichia coli [6] = assay: Antibacterial activity against Escherichia coli ATCC 25922 assessed as inhibition of bacterial growth incubated for 18 hrs by two fold serial dilution assay; assay type: functional
Acinetobacter baumannii [7] = assay: Potentiation of erythromycin induced antibacterial activity against Acinetobacter baumannii ATCC 17978 assessed as decrease in bacterial growth at 0.4 uM incubated for 18 hrs in presence of erythromycin by two fold serial dilution assay; assay type: functional, organism-based
Escherichia coli [8] = assay: Potentiation of novobiocin induced antibacterial activity against Escherichia coli ATCC 25922 assessed as decrease in bacterial growth at 0.4 uM incubated for 18 hrs in presence of novobiocin by two fold serial dilution assay; assay type: functional, organism-based
Klebsiella pneumoniae [9] = assay: Antibacterial activity against Klebsiella pneumoniae ATCC 700603 assessed as inhibition of bacterial growth incubated for 18 hrs by two fold serial dilution assay; assay type: functional
Acinetobacter baumannii [10] = assay: Potentiation of fusidic acid induced antibacterial activity against Acinetobacter baumannii ATCC 17978 assessed as decrease in bacterial growth at 0.4 uM incubated for 18 hrs in presence of fusidic acid by two fold serial dilution assay; assay type: functional, organism-based
Klebsiella pneumoniae [11] = assay: Potentiation of fusidic acid induced antibacterial activity against Klebsiella pneumoniae ATCC 700603 assessed as decrease in bacterial growth at 0.4 uM incubated for 18 hrs in presence of fusidic acid by two fold serial dilution assay; assay type: functional, organism-based
Escherichia coli [12] = assay: Potentiation of erythromycin induced antibacterial activity against Escherichia coli ATCC 25922 assessed as decrease in bacterial growth at 0.4 uM incubated for 18 hrs in presence of erythromycin by two fold serial dilution assay; assay type: functional, organism-based
Klebsiella pneumoniae [13] = assay: Potentiation of novobiocin induced antibacterial activity against Klebsiella pneumoniae ATCC 700603 assessed as decrease in bacterial growth at 0.4 uM incubated for 18 hrs in presence of novobiocin by two fold serial dilution assay; assay type: functional, organism-based
Acinetobacter baumannii [14] = assay: Potentiation of novobiocin induced antibacterial activity against Acinetobacter baumannii ATCC 17978 assessed as decrease in bacterial growth at 0.4 uM incubated for 18 hrs in presence of novobiocin by two fold serial dilution assay; assay type: functional, organism-based

| Compound | Activity (Klebsiella pneumoniae [1]) | MIC (Acinetobacter baumannii [2]) [µM] | MHC10 [3] [µM] | Retention_time [4] [min] | Activity (Escherichia coli [5]) | MIC (Escherichia coli [6]) [µM] | Activity (Acinetobacter baumannii [7]) | Activity (Escherichia coli [8]) | MIC (Klebsiella pneumoniae [9]) [µM] | Activity (Acinetobacter baumannii [10]) | Activity (Klebsiella pneumoniae [11]) | Activity (Escherichia coli [12]) | Activity (Klebsiella pneumoniae [13]) | Activity (Acinetobacter baumannii [14]) |
| --- | --- | --- | --- | --- | --- | --- | --- | --- | --- | --- | --- | --- | --- | --- |
| CC(=O)N[C@@H](CCCCN)C(=O)N[C@@H](CCCCN)C(=O)N[C@@H](CC(C)C)C(=O)N[C@@H](CC(C)C)C(=O)N[C@@H](CCCCN)C(=O)N[C@@H](CC(C)C)C(=O)N[C@@H](CC(C)C)C(=O)N[C@@H](CCCCN)C(=O)N[C@@H](CCCCN)C(=O)N1CCC[C@H]1C(=O)N[C@@H](CC(C)C)C(=O)N[C@@H](CCCCN)C(=O)N[C@@H](CC(C)C)C(=O)N[C@@H](CC(C)C)C(=O)N[C@@H](CCCCN)C(N)=O | Active | 10 (≈ 18.5 µg/mL) | > 160 | 18.2 | Active | > 80 | Active | Active | > 80 | Active | Active | Active | Active | Active |
| CCCCCCCCCCCCCCCC(=O)N[C@@H](CCCCN)C(=O)N[C@@H](CCCCN)C(=O)N[C@@H](C)C(=O)N[C@@H](CC(C)C)C(=O)N[C@@H](CCCCN)C(=O)N[C@@H](CC(C)C)C(=O)N[C@@H](C)C(=O)N[C@@H](CCCCN)C(=O)N[C@@H](CCCCN)C(=O)N1CCC[C@H]1C(=O)N[C@@H](CC(C)C)C(=O)N[C@@H](CCCCN)C(=O)N[C@@H](CC(C)C)C(=O)N[C@@H](CC(C)C)C(=O)N[C@@H](CCCCN)C(N)=O (HELM PEPTIDE1{[CCCCCCCCCCCCCCCC(=O)[*:2]].K.K.A.L.K.L.A.K.K.P.L.K.L.L.K.[am]}$$$$V2.0) | – | 1.3 (≈ 2.55 µg/mL) | 5.9 | 22.9 | – | 5 (≈ 9.79 µg/mL) | – | – | 10 (≈ 19.6 µg/mL) | – | – | – | – | – |
| Ac-AKLLKLLKKPLKLLK-NH2 | Active | 40 | > 160 | 19.2 | Active | > 80 | Active | Active | > 80 | Active | Active | Active | Active | Active |
| Ac-KALLKLLKKPLKLLK-NH2 | Active | 20 | > 160 | 19.4 | Active | > 80 | Active | Active | > 80 | Active | Active | Active | Active | Active |
| Ac-KKALKLAKKPLKLLK-NH2 | – | > 80 | > 160 | 15.3 | – | > 80 | – | – | > 80 | – | – | – | – | – |
| Ac-KKALKLLKKPLKLLK-NH2 | Active | > 80 | > 160 | 16.7 | Active | > 80 | Active | Active | > 80 | Active | Active | Active | Active | Active |
| Ac-KKLAKLLKKPLKLLK-NH2 | Active | 80 | > 160 | 17.1 | Active | > 80 | Active | Active | > 80 | Active | Active | Active | Active | Active |
| Ac-KKLLALLKKPLKLLK-NH2 | Active | 20 | > 160 | 19.4 | Active | 80 | Active | Active | 80 | Active | Active | Active | Active | Active |
| Ac-KKLLKLAKKPLKLLK-NH2 | Active | > 80 | > 160 | 16.8 | Active | > 80 | Active | Active | > 80 | Active | Active | Active | Active | Active |
| Ac-KKLLKLLAKPLKLLK-NH2 | Active | 40 | > 160 | 19.6 | Active | > 80 | Active | Active | > 80 | Active | Active | Active | Active | Active |
| Ac-KKLLKLLKAPLKLLK-NH2 | Active | 20 | > 160 | 19.6 | Active | > 80 | Active | Active | > 80 | Active | Active | Active | Active | Active |
| Ac-KKLLKLLKKPAKLLK-NH2 | Active | 80 | > 160 | 17.1 | Active | > 80 | Active | Active | > 80 | Active | Active | Active | Active | Active |
| Ac-KLLKLLKKPLKL-NH2 | – | > 80 | > 160 | 18 | – | > 80 | – | – | > 80 | – | – | – | – | – |
| Ac-KLLKLLKKPLKLL-NH2 | – | 20 | > 160 | 19.4 | – | > 80 | – | – | > 80 | – | – | – | – | – |
| Ac-KLLKLLKKPLKLLKK-NH2 | – | 20 | > 160 | 18.2 | – | > 80 | – | – | > 80 | – | – | – | – | – |
| Ac-KLLKLLKKPLKLLKKL-NH2 | – | 5 | > 160 | 19.7 | – | > 80 | – | – | 40 | – | – | – | – | – |
| Ac-LKKLLKLLKKPLKLLK-NH2 | – | 1.3 | 53 | 20.1 | – | > 10 | – | – | 2.5 | – | – | – | – | – |
| Ac-LKLLKKPLKLLK-NH2 | – | > 80 | > 160 | 18 | – | > 80 | – | – | > 80 | – | – | – | – | – |
| Ac-LLKLLKKPLKLLK-NH2 | – | > 80 | > 160 | 19.8 | – | > 80 | – | – | > 80 | – | – | – | – | – |
